According to US6201116A, “Halide indicators” (The Regents of the University of California, priority 1999, dated 2001):

Key:
[1] = Fluorescence spectra / optical properties; assay type: physicochemical; set-up: key to Brightness: ++++: very bright; +++: bright; ++: moderate brightness; +: weak; details: for Brightness / λem (emission wavelength) / λex (excitation wavelength): Table 4
Experimental: Computations. In vitro fluorescence quenching studies were carried out at peak excitation and emission wavelengths. Microliter aliquots of the sodium salt of the quenching anion (1 M) were added to indicator solution in 5 mM sodium phosphate (pH 7.2, unless indicated otherwise). Fluorescence intensities in the absence (Fo) and presence (F) of quencher anion ([Q]) were measured to give the Stem-Volmer constant (Kq) as defined by:
Fluorescence spectra reveal that LZQ and LMQ have broad excitation and emission peaks with maxima at 424 and 528 nm, respectively. The molar extinction coefficient of LZQ was 11,100 M^-1 cm^-1 at 424 nm and the quantum yield in the absence of I^- was 0.53. Stem-Volmer plots for quenching of LZQ and LMQ by I^- and Cl^-, with data for SPQ shown for comparison, were generated. In water (or saline), LZQ fluorescence was quenched by I^- with a Stem-Volmer constant of 60 M^-1. LZQ fluorescence was not quenched (Stem-Volmer constant <1 M^-1) by Cl^-, NO3^-, phosphate, acetate, Na^+ and K^+. LZQ fluorescence and I^- sensitivity were not affected by pH changes in the range 4.5-8.

[2] = In vitro fluorescence quenching by I^- (Stern-Volmer); assay type: physicochemical; details: Table 4
Experimental: Computations. In vitro fluorescence quenching studies were carried out at peak excitation and emission wavelengths. Microliter aliquots of the sodium salt of the quenching anion (1 M) were added to indicator solution in 5 mM sodium phosphate (pH 7.2, unless indicated otherwise). Fluorescence intensities in the absence (Fo) and presence (F) of quencher anion ([Q]) were measured to give the Stem-Volmer constant (Kq) as defined by: Fo /F=1+Kq [Q].

CFTR = details: cited from earlier work; for correction of CF phenotype (chemical chaperones): Swiss 3T3, Brown et al., 1996
cells [3] = assay: Cell loading and intracellular distribution (fluorescence/confocal microscopy); assay type: cell-based; details: for Cellular properties: staining/distribution: Table 4
Experimental: (§1) Fluorescence microscopy. Fluorescence microscopy measurements were performed as described previously (Chao et al., 1989). Briefly, coverglasses were mounted in a 0.5 ml perfusion chamber in which the cell-free glass surface made contact with an oil immersion objective (Nikon ×40 magnification, numerical aperture[NA] 1.3). Cell fluorescence was excited at 365±10 nm (SPQ) or 420 nm±10 nm (LZQ and LMQ). Emitted fluorescence was detected by a photomultiplier in a Nikon inverted epifluorescence microscope using a 410 nm dichroic mirror and 420 nm barrier filter (SPQ) or a 455 nm dichroic mirror and 500 nm barrier filter (LZQ). For cells colabeled with SPQ and LZQ, SPQ fluorescence was excited at 365±10 nm and detected using a 410 nm dichroic mirror and 455±30 nm interference filter. Confocal fluorescence micrographs were obtained using a Nipkow wheel confocal microscope and cooled CCD camera detector using a ×60 oil immersion objective (Nikon, NA 1.4). LZQ-labeled cells were viewed using a fluorescein filter set (excitation 480±15 nm, emission 520±20 nm).
Transport measurements. Cells were labeled with LZQ or SPQ by hypotonic shock (loading buffer/water 1:1 containing 2 mM LZQ or 7.5 mM SPQ) for 5 min at room temperature or by overnight incubation with indicators in the cell culture medium. Extracellular indicator was removed by washing just prior to measurements. For fluorescence microscopy, glass coverslips were then mounted in a perfusion chamber (flow ~2 ml/min) in which solutions were exchanged using a 4-way valve. For microplate reader measurements, cells in 96-well plates were bathed in […] of the `1st buffer` (see Table 3) and […] of the Cl^- -containing, I^- -free solution was injected into the well to drive Cl^- /I^- exchange (protocol 1). For stimulation of CFTR using protocol 2, […] of a 1:8 mixture of the 1st buffer and the 2nd buffer containing […] forskolin, 2 mM CPT-cAMP and […] IBMX was added.
(§2) LZQ and LMQ were loaded into cells efficiently by hypotonic shock or passive incubation. […] As was found for SPQ, LZQ and LMQ were non-toxic to cells in assays of cell growth (2 mM in culture medium for 72 h).

cells [4] = assay: Indicator leakage / cytoplasmic retention; assay type: cell-based; details: Table 4
Experimental: as §1
(§3) A time course of LZQ fluorescence during perfusion with physiological saline at 23° C. was generated. A small group of 20-30 cells was illuminated continuously and fluorescence was detected by a photomultiplier using an ×40, 1.3 NA objective. Cellular fluorescence decreased slowly at a rate of 2.5% per hour. To determine the relative contributions of indicator leakage vs. photobleaching to the slow decline in fluorescence, the perfused cells were illuminated intermittently. […] Background fluorescence (in non-labeled cells) was generally <5% of the fluorescence of LZQ-labeled cells.

cells [5] = assay: Photobleaching in cells; assay type: cell-based; details: Table 4
Experimental: as §1, §3

cells [6] = assay: Toxicity in assays of cell growth; assay type: cell-based; details: 2 mM in culture medium for 72 h
Experimental: as §2

cells [7] = assay: Response of intracellular fluorescence to osmotically-induced changes in cell volume; assay type: cell-based
Experimental: as §1
The similar LZQ lifetime in cells and water predicts that LZQ fluorescence should be relatively insensitive to cell volume in the absence of I^-. […] When cells were exposed to hypoosmotic medium (225 mOsm), SPQ fluorescence increased by 15±2%, whereas LZQ fluorescence increased by only 4±1%.

[8] = system: CFTR-expressing fibroblasts and T84 cells; assay: Cl^-/I^- exchange by LZQ fluorescence, CFTR-expressing cells; assay type: cell-based; details: solution Cl^- replaced by I^-
Experimental: as §1, with “LZQ-labeled cells were viewed using a fluorescein filter set (excitation 480±15 nm, emission 520±20 nm).” left out
(§4) Transport measurements. […] For fluorescence microscopy, glass coverslips were then mounted in a perfusion chamber (flow ~2 ml/min) in which solutions were exchanged using a 4-way valve. For microplate reader measurements, cells in 96-well plates were bathed in […] of the `1st buffer` (see Table 3) and […] of the Cl^- -containing, I^- -free solution was injected into the well to drive Cl^- /I^- exchange (protocol 1). […]

control fibroblasts = assay: Cl^-/I^- exchange by LZQ fluorescence, control cells; assay type: cell-based; details: solution Cl^- replaced by I^-
Experimental: as §1, with “LZQ-labeled cells were viewed using a fluorescein filter set (excitation 480±15 nm, emission 520±20 nm).” left out
as §4

C[n+]1c(-c2ccccc2)ccc2cc3ccc(-c4ccccc4)nc3cc21 [Compound VII, 1-methyl-2,7-diphenylpyrido-[3,2,g]quinolinium]
Brightness [1]: +++ | λem (emission wavelength) [1]: 515 nm | λex (excitation wavelength) [1]: 405 nm | Ksv (I^-), Stern Volmer quenching constant [2]: 46 M⁻¹

[2H]O[2H] [D2 O]
correction of CF phenotype (chemical chaperones) (CFTR): corrected the CF phenotype

NCCCNCCCCNC(=O)C(O)NC(=O)CCCCCCN=C(N)N (centres unmarked) [Deoxyspergualin]
restoration of Cl transport (CFTR; C127-CFTR, JME/CF15, IBE-1, Jiang et al., 1998): partially restored

CC(C)Cn1c(=O)n(C)c(=O)c2[nH]cnc21 [IBMX, 3-isobutyl-1-methylxanthine]
effect of increased [IBMX] on ΔF508 response (CFTR; L cells, Yang et al., 1993): improved

N=c1ccc2c(-c3ccccc3C(=O)O)c3ccc(N)cc3oc-2c1 [III, rhodamine-110, reference compound]
Brightness [1]: ++++ | λem (emission wavelength) [1]: 520 nm | λex (excitation wavelength) [1]: 496 nm | Ksv (I^-), Stern Volmer quenching constant [2]: 40 M⁻¹

Nc1ncnc2c1nc([O-])c1cccc[n+]12 [II]
emission maximum [1]: 528 nm | excitation maximum [1]: 424 nm | Brightness [1]: +++ | λem (emission wavelength) [1]: 530 nm | λex (excitation wavelength) [1]: 424 nm | Ksv (I^-), Stern Volmer quenching constant [2]: 70 M⁻¹ | Cellular properties: staining/distribution (cells [3]): staining uniform | loading into cells (cells [3]; hypotonic shock or passive incubation): efficiently | Cellular properties: leakage rate (cells [4]): moderate | Cellular properties: photobleaching (cells [5]): slow photobleaching | toxicity to cells (cell growth) (cells [6]): non-toxic

Cc1cc2cc3cc(C)c(N)cc3[n+](C)c2cc1N [IX, 10-methyl acridinium yellow]
Brightness [1]: ++++ | λem (emission wavelength) [1]: 520 nm | λex (excitation wavelength) [1]: 440 nm | Ksv (I^-), Stern Volmer quenching constant [2]: 90 M⁻¹ | Cellular properties: photobleaching (cells [5]): very rapid

COc1ccc2c(ccc[n+]2CCCS(=O)(=O)[O-])c1 [SPQ, 6-methoxy-N-[3-sulfopropyl]quinolinium, reference compound]
toxicity to cells (cell growth) (cells [6]): non-toxic | fluorescence increase upon exposure to hypoosmotic medium (cells [7]; 225 mOsm): 15±2% | fluorescence decrease upon exposure to hyperosmotic medium (cells [7]; 600 mOsm, absence of Cl^-, S.E., n=3): 30±2%

C[N+](C)(C)[O-] [TMAO]
correction of CF phenotype (chemical chaperones) (CFTR): corrected the CF phenotype

O=c1ccc2nc3ccc(O)cc3oc-2c1 [VIII, resorufin, reference compound]
Brightness [1]: +++ | λem (emission wavelength) [1]: 585 nm | λex (excitation wavelength) [1]: 571 nm | Ksv (I^-), Stern Volmer quenching constant [2]: 76 M⁻¹

CN(C)c1ccc2cc3ccc(N(C)C)cc3[n+](C)c2c1 [X, 10-methyl acridinium orange]
Brightness [1]: ++++ | λem (emission wavelength) [1]: 550 nm | λex (excitation wavelength) [1]: 440 nm | Ksv (I^-), Stern Volmer quenching constant [2]: 30 M⁻¹ | Cellular properties: photobleaching (cells [5]): very rapid

Nc1c2ccccc2[n+](CCCS(=O)(=O)[O-])c2ccccc12 [XII, 9-amino-10-(3-sulfopropys) acridinium]
Brightness [1]: +++ | λem (emission wavelength) [1]: 457 nm | λex (excitation wavelength) [1]: 422 nm | Ksv (I^-), Stern Volmer quenching constant [2]: 253 M⁻¹ | Cellular properties: staining/distribution (cells [3]): nuclear staining | Cellular properties: photobleaching (cells [5]): rapid

Nc1ccc2nc3ccc(N)cc3[n+](-c3ccccc3)c2c1 [XIII, phenosafranine, reference compound]
Brightness [1]: ++ | λem (emission wavelength) [1]: 586 nm | λex (excitation wavelength) [1]: 520 nm | Ksv (I^-), Stern Volmer quenching constant [2]: 33 M⁻¹

C=C[C@@]1(C)CC(=O)[C@]2(O)[C@@]3(C)[C@@H](O)CCC(C)(C)[C@@H]3[C@H](O)[C@H](OC(C)=O)[C@@]2(C)O1 [forskolin]
forskolin-stimulated change in LZQ fluorescence [8]: rapid decrease in LZQ fluorescence | forskolin-stimulated decrease in LZQ fluorescence, control (control fibroblasts): not in control fibroblasts

OCC(O)CO [glycerol]
correction of CF phenotype (chemical chaperones) (CFTR): corrected the CF phenotype

CCCC(=O)[O-].[Na+] [sodium butyrate]
Cl transport, overexpression of ΔF508 (CFTR; CFPAC-1, JME/CF15, 1° culture, Cheng et al., 1995): resulted in detectable Cl

CFTR protein: purified CFTR protein
Cl transport after transfer of purified protein (CFTR; CHO-CFTR, FRT-CFTR, LLCPK1, Marshall et al., 1994): induced Cl transport

rhodamine green [IV, reference compound]
Brightness [1]: ++++ | λem (emission wavelength) [1]: 530 nm | λex (excitation wavelength) [1]: 505 nm | Ksv (I^-), Stern Volmer quenching constant [2]: 30 M⁻¹
